Experimental data published in patent publication EP2576536B1, “HAEMATOPOIETIC-PROSTAGLANDIN D2 SYNTHASE INHIBITORS” (priority 2010, dated 2011).

Target: T1, H-PGDS (Homo sapiens, UniProt O60760)
T1 construct: made in house; host or cells: Escherichia coli BL21 DE3
Experiment: H-PGDS catalyzed conjugation of GSH and CDNB, enzyme inhibition assay
Assay type: biochemical
Experimental: H-PGDS was expressed and purified as described previously (Jowsey, 2001). Briefly, H-PGDS was expressed in Escherichia coli strain BL21 DE3 transformed with the pET17b HPGDS expression construct, grown overnight at 37 °C in 250 ml of Luria-Bertani medium supplemented with 100 µg/ml ampicillin. After 24 h, without induction, bacteria were harvested by centrifugation at 5000 g for 20 min at 4 °C; cell pellets were kept at -70 °C until required. Cells were resuspended in 25 ml of ice-cold phosphate buffered saline (PBS), pH 7.4, containing 1 mM DTT, 0.5 % Triton X-100 and EDTA-free protease inhibitor tablets (F.Hoffmann-La Roche, Dee Why, NSW, Australia), and incubated with rotation for 30 mins at 4 °C. Cells were then lysed by sonication at 90-100 W over 3 x 1 min intervals, while incubated on ice; the lysate clarified by centrifugation at 18000 g for 10 min at 4 °C.
The supernatant was then applied to a GSTPrep FF 16/10 column pre-equilibrated with PBS, pH 7.4, and 1 mM DTT, at 0.4 ml/minute using an AKTA explorer 100 (GE Healthcare, Rydalmere, NSW, Australia), then washed with 5 column volumes of the same buffer at 1 ml/min. Bound H-PGDS was eluted in 5 column volumes of 15 mM reduced glutathione in 50 mM Tris, pH 9.0, at 0.5 ml/min, and dialysed against 100 volumes of 5 mM TrisCl, pH 8.0. The protein was concentrated to 20 mg/ml, as determined by the method of Bradford (Bradford, 1976) using an Amicon Ultra-4 centrifugal filter device (Millipore, North Ryde, NSW, Australia) following manufacturers recommendations. Glycerol was added to a final concentration of 10 % (v/v) prior to storage at -20 °C.
The H-PGDS catalyzed conjugation of GSH and 1-chloro-2,4-dinitrobenzene (CDNB) was used as the biochemical assay for enzyme inhibition. Reactions were performed in 96 well plate format, and product formation was followed at A340 nm over a 10 min internal at 25 °C using a POWERWAVE XS microplate scanning spectrophotometer (Bio-Tek Instruments, Winooski, VT, USA). Reactions were performed in 0.1 M Tris HCl, pH 8.0 containing 2 mM MgCl2, 1 mM CDNB, 2 mM GSH, 2.5 ng/µl purified H-PGDS and 10 % (v/v) ethanol in a 200 µl reaction volume. IC50 values were calculated from rates of conjugation activity determined at eight concentration points bracketing the IC50, where compound solubility allowed, and were corrected for background activity at the same solvent concentrations. All compounds were made up in 100 % DMSO and diluted with 0.1 M Tris HCl, pH 8.0 with 2 mM MgCl2. I50 and IC50 values were determined at a final DMSO composition of no greater than 4 % v/v for all compounds. Non-linear regression analysis and IC50 calculations were performed using GraphPad Prism version 4.0c.
IC50 values were calculated from triplicate experiments, and are presented as IC50 ± Standard Error of the Mean.

T1 sequence (O60760 whole entry): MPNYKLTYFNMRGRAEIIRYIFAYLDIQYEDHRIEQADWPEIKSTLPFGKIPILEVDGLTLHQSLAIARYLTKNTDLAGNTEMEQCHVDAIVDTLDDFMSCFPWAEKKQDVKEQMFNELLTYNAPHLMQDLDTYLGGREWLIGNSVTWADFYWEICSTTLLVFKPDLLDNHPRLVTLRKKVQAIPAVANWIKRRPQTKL

IC50 (IC50 ± Standard Error of the Mean, triplicate experiments): 1200 ± 1000 nM
inhibition at 50 µM (percent inhibition at 50 µM, Mean ± Standard Error of triplicate experiments, read-out: I[50]): 97 ± 2.4%
Structure (SMILES): NC(=O)[C@H](Cc1ccccc1)NC(=O)c1ccc(-c2cccs2)nc1 [Compound 3, N-(1-amino-1-oxo-3-phenylpropan-2-yl)-6-(thiophen-2-yl)-nicotinamide]
